Assay results: article PMC6344527, “Toxicity and possible mechanisms of action of honokiol from Magnolia denudata seeds against four mosquito species” (Scientific Reports, 2019)
In brackets after ≈: the same amount, converted by molar mass. Like-named read-outs stand apart in the source and are kept apart here.

Tests used:
[1] = test system: third-instar larvae of insecticide-susceptible Aedes aegypti; experiment: contact mortality bioassay, 24 h exposure; type: in vivo; settings: 24 h exposure; for LC50: Aedes aegypti, 24 h
Protocol: (§1) A contact mortality bioassay[25] was used to evaluate the toxicity of all compounds against third-instar larvae of the four mosquito species. Each test compound in methanol was suspended in DW with Triton X-100 (20 µL/L). Groups of 20 mosquito larvae were separately placed into paper cups (270 mL) containing each compound solution (250 mL). […] Negative controls consisted of a methanol–Triton X-100 solution in DW.
(§2) Treated and control (methanol–Triton X-100 solution only) larvae were maintained under the same conditions as those used for colony maintenance without providing food. Larval mortalities were determined 24 h post-treatment. […] All treatments were performed three times using 20 larvae per replicate.
(§3) The concentration of the test compounds required to produce 50% AChE inhibitory activity (IC50) was determined using the SAS 9.13 program (Cary: SAS Institute; 2014). Concentration-mortality data were subjected to probit analysis using the SAS 9.13 program. […] Statistical analyses were performed using the SAS 9.13 program. Multiple linear regression and correlation analysis were performed using the SPSS 24 program (Armonk: IBM Corp.; 2016).

[2] = test system: third-instar larvae of insecticide-susceptible Culex pipiens pallens; experiment: contact mortality bioassay, 24 h exposure; type: in vivo; settings: 24 h exposure; for LC50: Culex pipiens, 24 h
Protocol: as §1, §2, §3

mosquito species larvae = settings: cited from earlier work
[3] = molecular target: acetylcholinesterase (AChE) from third-instar Ae. aegypti larvae (Aedes aegypti, UniProt A4GND7); experiment: acetylcholinesterase inhibition assay; type: biochemical; settings: based on IC50 values
Sequence of acetylcholinesterase (AChE) from third-instar Ae. aegypti larvae (A4GND7 37-679): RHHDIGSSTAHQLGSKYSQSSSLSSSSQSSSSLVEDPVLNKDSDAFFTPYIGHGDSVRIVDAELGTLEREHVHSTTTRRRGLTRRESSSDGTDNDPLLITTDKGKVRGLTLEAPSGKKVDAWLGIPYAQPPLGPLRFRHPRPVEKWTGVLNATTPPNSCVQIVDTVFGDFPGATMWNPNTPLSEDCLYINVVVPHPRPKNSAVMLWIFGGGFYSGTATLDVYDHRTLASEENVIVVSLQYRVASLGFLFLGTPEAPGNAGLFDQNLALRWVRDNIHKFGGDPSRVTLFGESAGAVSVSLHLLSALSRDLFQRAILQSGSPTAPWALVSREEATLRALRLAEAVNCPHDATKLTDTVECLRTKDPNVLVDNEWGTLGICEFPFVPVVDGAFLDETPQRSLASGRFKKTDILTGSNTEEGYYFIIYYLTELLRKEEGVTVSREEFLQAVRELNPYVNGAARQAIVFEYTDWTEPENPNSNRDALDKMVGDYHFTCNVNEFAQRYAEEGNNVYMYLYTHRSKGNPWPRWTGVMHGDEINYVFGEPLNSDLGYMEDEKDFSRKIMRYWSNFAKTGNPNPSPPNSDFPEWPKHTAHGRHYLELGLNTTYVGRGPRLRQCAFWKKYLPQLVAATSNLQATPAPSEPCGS
Protocol: The in vitro AChE inhibitory activity of the test compounds was assessed according to the method of Perumalsamy et al.[42]. Third-instar Ae. aegypti larvae were used in all experiments. Whole bodies of 50 larvae were homogenized in 1 mL of ice-cold 0.1 M phosphate buffer (pH 8.0) using a glass tissue homogenizer. After filtering through cheesecloth, the homogenate was centrifuged at 1,000 × g at 4 °C for 5 min. The supernatant was used directly as the enzyme source for AChE. The protein levels were determined using the Bradford Protein Assay Kit (Bio-Rad Laboratories, Hercules, CA, USA) using BSA as the standard. The reaction mixture consisted of 50 µL of the crude enzyme preparation (4.3–4.8 µg protein equivalents), 150 µL of 0.1 M phosphate buffer, 20 µL of 3 mM DTNB in phosphate buffer (pH 7.0), and 1 µL of various concentrations of each test compound in ethanol. The reaction mixture was incubated at 30 °C for 5 min, and 20 µL of 32 mM ATChI was then added to the mixture. After incubation for 30 min, the reaction was terminated by adding 20 µL of 5 mM eserine salicylate. Absorbance was recorded at 412 nm using a VersaMax microplate reader (Molecular Devices, Sunnyvale, CA, USA). […] The results are expressed as the means ± standard errors (SEs) of triplicate samples from three independent experiments.
as §3

[4] = Table 7, structure-activity series, read-out: LC50 (mg/L) (95% CI)
[5] = Table 7, structure-activity series
[6] = Table 6, structure-activity series, read-out: LC50 (mg/L) (95% CI)
[7] = Table 6, structure-activity series

With `COc1ccccc1O` [Guaiacol, guaiacol] as the molecule, how does the LC50 [1, 4] read?
The LC50 was 115 mg/L (≈ 930 µM).

What about the “LC90 (mg/L) (95% CI)” value [1, 5] of the same molecule?
The value was 223.1 (188.3–292.1) mg/L.

And the LC50 [2, 6]?
Its LC50 is 108 mg/L (≈ 868 µM).

What about the “LC90 (mg/L) (95% CI)” value [2, 7] of the same molecule?
Its value is 205.6 (176.3–260.9) mg/L.

Which LC50 (mosquito species larvae; acetylenic alcohols) does the source give for `C=C[C@H](O)C#CC#CC/C=C\CCCCCCC` [falcarinol] here?
The LC50 was 3.49 µg/mL (≈ 14.3 µM).

With `CCc1ccc(O)cc1` [p-Ethylphenol, p-ethylphenol] as the molecule, how does the LC50 [1, 4] read?
Its LC50 is 9.03 mg/L (≈ 73.9 µM).

And the “LC90 (mg/L) (95% CI)” value [1, 5]?
The value was 30.57 (23.29–48.51) mg/L.

What about the LC50 [2, 6] of the same molecule?
Its LC50 is 8.3 mg/L (≈ 67.9 µM).

What about the “LC90 (mg/L) (95% CI)” value [2, 7] of the same molecule?
The value was 25.86 (20.36–38.21) mg/L.

What about the “AChE inhibitory activity (in words)” value [3] of the same molecule?
Its value is “relatively weak AChE inhibitors”.

For `C=CCc1ccc(O)c(OC)c1` [Eugenol, eugenol], which LC50 [1, 4] is on record?
Its LC50 is 75.8 mg/L (≈ 461 µM).

And the “LC90 (mg/L) (95% CI)” value [1, 5]?
Its value is 141.4 (126.3–166.2) mg/L.

What about the LC50 [2, 6] of the same molecule?
Its LC50 is 74.3 mg/L (≈ 453 µM).

What about the “LC90 (mg/L) (95% CI)” value [2, 7] of the same molecule?
The value was 143.3 (127.2–170.3) mg/L.

Which LC50 (mosquito species larvae; terpenoids) does the source give for `CC(C)=C1C[C@H]2C(=C(C)CC1=O)CC[C@]2(C)O` [neoprocurcumenol] here?
The LC50 was 13.69 µg/mL (≈ 58.4 µM).

With `COP(=O)(OC)OC=C(Cl)Cl` [Dichlorvos, dichlorvos, reference compound] as the molecule, how does the LC50 ([1]; read-out: LC50 (mg/L) (95% CI), Table 7, structure-activity series) read?
The LC50 was 0.158 mg/L (≈ 0.715 µM).

What about the “LC90 (mg/L) (95% CI)” value [1, 5] of the same molecule?
The value was 0.660 (0.505–0.963) mg/L.

And the LC50 ([2]; read-out: LC50 (mg/L) (95% CI), Table 6, structure-activity series)?
Its LC50 is 0.103 mg/L (≈ 0.466 µM).

And the “LC90 (mg/L) (95% CI)” value [2, 7]?
The value was 0.504 (0.380–0.761) mg/L.

And the “AChE inhibitory activity (in words)” value [3]?
The value was “did not differ significantly”.

With `C=CC[C@@]12C=C(OC)C(=O)C=C1O[C@H](c1ccc3c(c1)OCO3)[C@H]2C` [burchellin] as the molecule, how does the LC50 (mosquito species larvae; neolignans) read?
Its LC50 is 15.5 µg/mL (≈ 45.5 µM).

For `C=C[C@@H](O)C#CC#C[C@@H](O)/C=C\CCCCCCC` [falcarindiol], which LC50 (mosquito species larvae; acetylenic alcohols) is on record?
Its LC50 is 6.51 µg/mL (≈ 25 µM).

With `CC(C)=C1C[C@H]2C(=C(C)C(=O)C1=O)CC[C@]2(C)O` [9-oxoneoprocurcumenol] as the molecule, how does the LC50 (mosquito species larvae; terpenoids) read?
The LC50 was 5.81 µg/mL (≈ 23.4 µM).

Which LC50 [1, 4] does the source give for `C=CCc1cccc(OC)c1O` [o-Eugenol, o-eugenol] here?
The LC50 was 8.84 mg/L (≈ 53.8 µM).

And the “LC90 (mg/L) (95% CI)” value [1, 5]?
Its value is 24.01 (19.52–33.06) mg/L.

And the LC50 [2, 6]?
Its LC50 is 7.46 mg/L (≈ 45.4 µM).

And the “LC90 (mg/L) (95% CI)” value [2, 7]?
Its value is 23.13 (18.42–33.49) mg/L.

What about the “AChE inhibitory activity (in words)” value [3] of the same molecule?
Its value is “relatively weak AChE inhibitors”.

With isoeugenol as the molecule, how does the “LC90 (mg/L) (95% CI)” value [1, 5] read?
Its value is 137.2 (124.3–161.2) mg/L.

And the “LC90 (mg/L) (95% CI)” value [2, 7]?
The value was 138.1 (124.4–164.5) mg/L.

For `C=CCc1cc(OC)c(O)c(OC)c1` [Methoxyeugenol, methoxyeugenol], which LC50 [1, 4] is on record?
Its LC50 is 9.15 mg/L (≈ 47.1 µM).

What about the “LC90 (mg/L) (95% CI)” value [1, 5] of the same molecule?
Its value is 29.46 (22.83–44.88) mg/L.

And the LC50 [2, 6]?
The LC50 was 8.4 mg/L (≈ 43.2 µM).

What about the “LC90 (mg/L) (95% CI)” value [2, 7] of the same molecule?
The value was 25.52 (20.27–36.92) mg/L.

And the “AChE inhibitory activity (in words)” value [3]?
Its value is “lowest of all of the compounds that were examined”.

For `CCCCCCCC/C=C\CCCCCCCC(=O)O` [oleic acid], which LC50 (mosquito species larvae; flavonoids and fatty acids) is on record?
Its LC50 is 18.07 to 18.45 µg/mL.

Which LC50 [1, 4] does the source give for `Oc1ccc(-c2ccc(O)cc2)cc1` [p,p′-Biphenol, p,p′-biphenol] here?
The LC50 was 8.34 mg/L (≈ 44.8 µM).

And the “LC90 (mg/L) (95% CI)” value [1, 5]?
Its value is 27.76 (21.50–42.52) mg/L.

And the LC50 [2, 6]?
Its LC50 is 7.52 mg/L (≈ 40.4 µM).

What about the “LC90 (mg/L) (95% CI)” value [2, 7] of the same molecule?
Its value is 23.97 (18.97–35.16) mg/L.

What about the “AChE inhibitory activity (in words)” value [3] of the same molecule?
Its value is “relatively weak AChE inhibitors”.

With (−)-asarinin as the molecule, how does the LC50 (mosquito species larvae; lignans) read?
Its LC50 is 10.49 to 16.49 µg/mL.

With `N#C[C@@H](O[C@@H]1O[C@H](CO)[C@@H](O)[C@H](O)[C@H]1O)c1ccc(O)cc1` [dhurrin] as the molecule, how does the LC50 (mosquito species larvae; cyanogenic glycosides) read?
Its LC50 is 12 µg/mL (≈ 38.5 µM).

Which LC50 (mosquito species larvae; phenylpropanoids) does the source give for `CCOC(=O)C=Cc1ccc(OC)cc1` [ethyl p-methoxycinnamate] here?
The LC50 was 12.3 to 20.7 µg/mL.

Which results are given for `O=C(O)/C=C/c1ccc(O)c(O)c1` [Caffeic acid, caffeic acid]?
LC50 [1, 4]: 124 mg/L (≈ 691 µM); LC90 (mg/L) (95% CI) [1, 5]: 235.9 (204.2–296.1) mg/L; LC50 [2, 6]: 119 mg/L (≈ 662 µM); LC90 (mg/L) (95% CI) [2, 7]: 245.6 (208.1–323.3) mg/L
